Here are results for 38 compounds from patent US7943628B2, “Pyrimidine derivatives” (Pfizer Limited, priority 2005, dated 2011).

Test [1] deals with T1, histamine H4 receptor (Homo sapiens, UniProt Q9H3N8).
T1 construct: expressed in transfected cells; host or cells: CHO cells
Description: H4 binding, method 2 ([3H]-histamine binding with Ysi WGA beads on CHO cell membranes). Particulars: for Ki: H4 binding, method 2, Ki calculated from IC50 (Cheng-Prussoff). The procedure, abridged: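 Membranes from H4-expressing CHO cells were pre-bound to WGA SPA beads, then incubated 90 min at room temperature with 6.5 nM [3H]-histamine in 50 mM Tris-HCl pH 7.4, with or without competitor. Non-specific binding defined with 10 μM JNJ7777120; bound label read by scintillation counting.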

Test [2] deals with T1, histamine H4 receptor. Briefly: H4 binding, method 1 ([3H]-histamine filtration binding on CHO cell membranes). Particulars: H4 binding, method 1; Ki calculated from IC50 (Cheng-Prussoff). In a few lines:
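Membranes from CHO cells expressing human H4 receptor (20-35 μg/well) incubated 90 min at room temperature with 3 nM [3H]-histamine in 50 mM Tris-HCl pH 7.4, ± competitor. Bound label separated by filtration on PEI-soaked GF/B filters and counted by scintillation; non-specific binding with 10 μM JNJ7777120.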

A value given as a limit tells only on which side of the number the result lay.

T1 sequence (Q9H3N8 whole entry): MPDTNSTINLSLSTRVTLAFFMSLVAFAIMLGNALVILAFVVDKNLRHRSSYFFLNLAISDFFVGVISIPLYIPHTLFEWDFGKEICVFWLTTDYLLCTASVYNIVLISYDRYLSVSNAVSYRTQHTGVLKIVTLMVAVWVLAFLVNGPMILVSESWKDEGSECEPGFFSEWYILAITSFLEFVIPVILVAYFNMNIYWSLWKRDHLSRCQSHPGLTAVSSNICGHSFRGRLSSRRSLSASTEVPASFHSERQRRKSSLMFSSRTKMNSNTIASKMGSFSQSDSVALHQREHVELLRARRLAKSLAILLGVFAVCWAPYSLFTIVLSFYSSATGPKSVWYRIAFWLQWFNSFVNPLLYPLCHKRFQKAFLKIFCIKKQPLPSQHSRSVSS

As to `CC(C)Nc1cc(N2CCN(C)CC2)nc(N)n1` [Example 119, N^4-Isopropyl-6-(4-methylpiperazin-1-yl)pyrimidine-2,4-diamine], the Ki in test [1] (Method 2 (Ki (nM))) was 7.8 nM; in test [2], 3.44 nM.
For the compound `CN1CCN(c2cc(NCCC(C)(C)C)ncn2)CC1` [Example 1, N-(3,3-Dimethylbutyl)-6-(4-methylpiperazin-1-yl)pyrimidin-4-amine], the inhibition constant Ki in test [1] (read-out: Method 2 (Ki (nM))) is 335 nM; in test [2] it was 82.3 nM.
Consider `CNC1CN(c2cc(NCC(C)C)ncn2)C1` [Example 49, N-Isobutyl-6-[3-(methylamino)azetidin-1-yl]pyrimidin-4-amine], for which the Ki is 29.9 nM in test [1] (read-out: Method 2 (Ki (nM))) and 10.7 nM in test [2].
On to `CN[C@@H]1CCN(c2cc(NCC3CC3)nc(N)n2)C1` [Example 9, N^4-(Cyclopropylmethyl)-6-[(3R)-3-(methylamino)pyrrolidin-1-yl]pyrimidine-2,4-diamine], for which the Ki in test [1] (read-out: Method 2 (Ki (nM))) was 19.3 nM; in test [2], 2.7 nM.
For the compound `CNC1CN(c2cc(NCC(C)C)nc(N)n2)C1` [Example 71, N^4-Isobutyl-6-[3-(methylamino)azetidin-1-yl]pyrimidine-2,4-diamine], the inhibition constant (Ki) in test [1] (read-out: Method 2 (Ki (nM))) was 14 nM; in test [2], 1.29 nM.
For `CNC1CN(c2cc(NCCC(C)(C)C)nc(N)n2)C1` [Example 64, N^4-(3,3-Dimethyl-butyl)-6-(3-methylamino-azetidin-1-yl)-pyrimidine-2,4-diamine], in that order: 4.43 nM and 4.63 nM.
As for `CNC1CN(c2cc(NCCC(C)C)nc(N)n2)C1` [Example 74, 6-[3-(Methylamino)azetidin-1-yl]-N^4-(3-methylbutyl)pyrimidine-2,4-diamine], the Ki is 16.8 nM in test [1] (read-out: Method 2 (Ki (nM))) and 0.58 nM in test [2].
With `CN1CCC(N(C)c2cc(NCCC(C)(C)C)ncn2)CC1` [Example 279, N′-(3,3-Dimethylbutyl)-N-methyl-N-(1-methylpiperidin-4-yl)pyrimidine-4,6-diamine], the Ki in test [1] (read-out: Method 2 (Ki (nM))) was greater than 9130 nM; in test [2], 1370 nM.
Consider `CN[C@@H]1CCN(c2cc(NCC(C)(C)C)nc(N)n2)C1` [Example 11, N^4-(2,2-Dimethylpropyl)-6-[(3R)-3-(methylamino)pyrrolidin-1-yl] pyrimidine-2,4-diamine], for which the Ki in test [1] (read-out: Method 2 (Ki (nM))) was 31.6 nM; in test [2], 10.6 nM.
Consider `CN1CCN(c2cc(NCC3CC3)nc(N)n2)CC1` [Example 122, N^4-(Cyclopropylmethyl)-6-(4-methylpiperazin-1-yl)pyrimidine-2,4-diamine], for which the Ki in test [1] (Method 2 (Ki (nM))) is 8.65 nM; in test [2], 3.65 nM.
Take `CNC1CN(c2cc(NC(C)C)nc(N)n2)C1` [Example 60, N^4-Isopropyl-6-(3-methylamino-azetidin-1-yl)-pyrimidine-2,4-diamine]: the values for the Ki in test [1] (read-out: Method 2 (Ki (nM))) and in test [2] were 28.8 nM and 3.57 nM, respectively.
As for `CNC1CN(c2cc(NCC3CCC3)nc(N)n2)C1` [Example 67, N^4-Cyclobutylmethyl-6-(3-methylamino-azetidin-1-yl)-pyrimidine-2,4-diamine], the Ki in test [1] (read-out: Method 2 (Ki (nM))) was 1.6 nM; in test [2], 0.278 nM.
With `CNC1CN(c2cc(NCc3cccc(F)c3)nc(N)n2)C1` [Example 65, N^4-(3-Fluoro-benzyl)-6-(3-methylamino-azetidin-1-yl)-pyrimidine-2,4-diamine], the Ki was 19.8 nM in test [1] (read-out: Method 2 (Ki (nM))) and 17.5 nM in test [2].
For `CNC1CN(c2cc(NCC(C)(C)C)nc(N)n2)C1` [Example 61, N^4-(2,2-Dimethylpropyl)-6-[3-(methylamino)azetidin-1-yl]pyrimidine-2,4-diamine], the Ki was 1.33 nM in test [1] (read-out: Method 2 (Ki (nM))) and 1.66 nM in test [2].
`CC(C)CNc1cc(N2CC[C@@H](N(C)C)C2)ncn1` [Example 20, 6-[(3R)-3-(Dimethylamino)pyrrolidin-1-yl]-N-isobutyl-pyrimidin-4-amine]: the Ki is 58.1 nM in test [1] (read-out: Method 2 (Ki (nM))) and 30.5 nM in test [2].
As for `CNC1CN(c2cc(NCC3CCCC3)nc(N)n2)C1` [Example 68, N^4-Cyclopentylmethyl-6-(3-methylamino-azetidin-1-yl)-pyrimidine-2,4-diamine], the Ki in test [1] (read-out: Method 2 (Ki (nM))) is 6.26 nM; in test [2], 0.979 nM.
Turning to `CNC1CN(c2cc(NCCC(C)(C)C)ncn2)C1` [Example 59, N-(3,3-Dimethylbutyl)-6-[3-(methylamino)azetidin-1-yl]pyrimidin-4-amine], the Ki was 59.2 nM in test [1] (read-out: Method 2 (Ki (nM))) and 37.7 nM in test [2].
Regarding `CN1CCN(c2cc(NCC(C)(C)C)ncn2)CC1` [Example 99, N-(2,2-Dimethylpropyl)-6-(4-methylpiperazin-1-yl)pyrimidin-4-amine], the inhibition constant Ki was 38.1 nM in test [1] (Method 2 (Ki (nM))) and 23.6 nM in test [2].
Turning to `CNC1CN(c2cc(NCC3CC3)nc(N)n2)C1` [Example 63, N^4-Cyclopropylmethyl-6-(3-methylamino-azetidin-1-yl)-pyrimidine-2,4-diamine], the inhibition constant Ki in test [1] (read-out: Method 2 (Ki (nM))) is 12.2 nM; in test [2], 1.95 nM.
For `CN(C)[C@@H]1CCN(c2cc(NCC(C)(C)C)ncn2)C1` [Example 22, 6-[(3R)-3-(Dimethylamino)pyrrolidin-1-yl]-N-(2,2-dimethylpropyl)pyrimidin-4-amine], in that order: 59.3 nM and 58.9 nM.
Regarding `CC(C)CNc1cc(N2CCN(C)CC2)nc(N)n1` [Example 121, N^4-Isobutyl-6-(4-methylpiperazin-1-yl)pyrimidine-2,4-diamine], the Ki in test [1] (Method 2 (Ki (nM))) was 6.64 nM; in test [2], 2.18 nM.
As for `CCN1CCN(c2cc(NCCC(C)(C)C)ncn2)CC1` [Example 270, N-(3,3-Dimethylbutyl)-6-(4-ethylpiperazin-1-yl)pyrimidin-4-amine], the Ki in test [1] (read-out: Method 2 (Ki (nM))) was greater than 16200 nM; in test [2], 839 nM.
For `CN[C@@H]1CCN(c2cc(NCC(C)C)ncn2)C1` [Example 14, N-Isobutyl-6-[(3R)-3-(methyl-amino)pyrrolidin-1-yl]pyrimidin-4-amine], in that order: 23.3 nM and 13.6 nM.
For `CNC1CN(c2cc(NCCC(F)(F)F)nc(N)n2)C1` [Example 62, 6-(3-Methylamino-azetidin-1-yl)-N^4-(3,3,3-trifluoro-propyl)-pyrimidine-2,4-diamine], in that order: 14.1 nM and 8.94 nM.
Turning to `CCNc1cc(N2CCN(C)CC2)nc(N)n1` [Example 120, N^4-Ethyl-6-(4-methylpiperazin-1-yl)pyrimidine-2,4-diamine], the figures for the Ki in test [1] (Method 2 (Ki (nM))) and in test [2] were 11.2 nM and 4.89 nM, respectively.
On to `CC(C)(C)CCNc1cc(N2CCC(N)CC2)ncn1` [Example 340, 6-(4-Aminopiperidin-1-yl)-N-(3,3-dimethylbutyl)pyrimidin-4-amine], for which the “Method 2, % at 40 μM” value in test [1] (at 40 μM) is listed as 50% at 40 μM.
With `CN1C[C@@H]2CN(c3cc(NCc4cccc(F)c4)nc(N)n3)C[C@@H]2C1` [Example 92, N^4-(3-Fluorobenzyl)-6-[(3aR*,6aS*)-5-methylhexahydropyrrolo [3,4-c]pyrrol-2(1H)-yl]pyrimidine-2,4-diamine], the Ki in test [1] (read-out: Method 2 (Ki (nM))) is 1350 nM.
On the same count and under the same terms, under `CC(C)CCNc1cc(N2C[C@H]3CN(C)C[C@H]3C2)nc(N)n1` [Example 41, N^4-(3-Methylbutyl)-6-[(3aR*,6aS*)-5-methylhexahydro-pyrrolo[3,4-c]pyrrol-2(1H)-yl]pyrimidine-2,4-diamine] stands 202 nM.
With `CNC1CN(c2cc(NCCC(C)C)ncn2)C1` [Example 55, 6-[3-(Methylamino)azetidin-1-yl]-N-(3-methylbutyl)pyrimidin-4-amine], in test [1] (read-out: Method 2 (Ki (nM))), the inhibitory constant (Ki) is 28.9 nM.
With `CC(C)(C)CCNc1cc(N2CCNCC2)ncn1` [Example 111, N-(3,3-Dimethylbutyl)-6-piperazin-1-ylpyrimidin-4-amine], the figures for the Ki in test [1] (read-out: Method 2 (Ki (nM))) and in test [2] were 1800 nM and 201 nM, respectively.
Turning to `CNC1CN(c2cc(NCc3ccccc3OC)nc(N)n2)C1` [Example 87, N^4-(2-Methoxybenzyl)-6-[3-(methylamino)azetidin-1-yl]pyrimidine-2,4-diamine], the Ki in test [1] (read-out: Method 2 (Ki (nM))) is 17.4 nM.
For `COCCNc1cc(N2CCN(C)CC2)ncn1` [Example 110, N-(2-Methoxyethyl)-6-(4-methylpiperazin-1-yl)pyrimidin-4-amine], the Ki in test [1] (read-out: Method 2 (Ki (nM))) was 829 nM.
As to `CN(C)[C@@H]1CCN(c2cc(NCC3CC3)ncn2)C1` [Example 19, N-(Cyclopropylmethyl)-6-[(3R)-3-(dimethylamino)pyrrolidin-1-yl]pyrimidin-4-amine], the Ki in test [1] (read-out: Method 2 (Ki (nM))) was 132 nM.
On to `C[C@@H]1CN(c2cc(NCC(C)(C)C)nc(N)n2)CCN1` [Example 95, N^4-(2,2-Dimethylpropyl)-6-[(3R)-3-methylpiperazin-1-yl]pyrimidine-2,4-diamine], for which the Ki in test [1] (read-out: Method 2 (Ki (nM))) is 9.11 nM.
As for `CNC1CN(c2cc(NCc3ccc(OC(F)(F)F)cc3)nc(N)n2)C1` [Example 76, 6-[3-(Methylamino)azetidin-1-yl]-N^4-[4-(trifluoromethoxy)benzyl]pyrimidine-2,4-diamine], the Ki in test [1] (read-out: Method 2 (Ki (nM))) is 125 nM.
`CN1CCN(c2cc(NCCC(F)(F)F)ncn2)CC1` [Example 115, 6-(4-Methylpiperazin-1-yl)-N-(3,3,3-trifluoropropyl)pyrimidin-4-amine]: the inhibitory constant (Ki) in test [1] (read-out: Method 2 (Ki (nM))) was 494 nM.
For `CCNc1cc(N2CCN[C@@H](C)C2)nc(N)n1` [Example 98, N^4-Ethyl-6-[(3S)-3-methylpiperazin-1-yl]pyrimidine-2,4-diamine], the inhibition constant (Ki) in test [1] (Method 2 (Ki (nM))) is 56.2 nM.
Regarding `CCNc1cc(N2C[C@H]3CCCN[C@H]3C2)nc(N)n1` (racemic) [Example 26, N^4-Ethyl-6-[(4aR*,7aR*)-octahydro-6H-pyrrolo[3,4-b]pyridin-6-yl]pyrimidine-2,4-diamine], in test [1] (Method 2 (Ki (nM))), the Ki is 30 nM.

What is called Ki is the dissociation constant of the complex between target and ligand, obtained from inhibition or displacement.
